Measured values published in patent publication US8461205B2, “Anthranilic acid derivatives” (Chelsea Therapeutics, Inc., priority 2007, dated 2013).

Key:
[1] = tested on: human T lymphoblast cell line (Jurkat); test: Inhibition of T-cell proliferation (Jurkat, 3H-TdR incorporation); format: cell-based; details: for IC50: Homo sapiens, Jurkat cells, 3 days culture, 3H-TdR pulse last 4 hours; for inhibitory effect on T-cell proliferation (in words): Jurkat, cf. Table 1
Procedure: Inhibition of T cell proliferation was studied in a functional assay. A human T lymphoblast cell line (Jurkat) was cultured in the presence and absence, respectively, of DHODH inhibiting compounds. Jurkat cells were seeded in microtiterplates at a concentration of 5×10^5/mL in RPMI 1640 growth media supplemented with ultraglutamin, 10% fetal calf serum, 1 mM sodium pyruvat, 10 mM HEPES and 0.1 mg/mL gentamycin. A dilution series of ten different concentrations of inhibitor was added to the wells and the plates were kept in a cell incubator for 3 days. At the beginning of the last 4 hours period, the cultures were pulsed with 10 μl/well 0.1 Ci/mmol 3H-TdR and then harvested on filter papers and counted with a ([…]. The IC50 values for each compound were calculated from the obtained dose response curves. Adding uridine to a concentration of about 50 μM in the wells monitored the specificity for the mechanism i.e., the inhibition of cell proliferation is due to DHODH inhibition and not to a general cell toxicity of the compounds. This addition of uridine reverses the anti-proliferative effect by bypassing the DHODH enzyme using an external source of pyrimidine. Results in respect of a number of compounds of the invention are reported as Jurkat IC50 (in μM) in Table 1.
(§1) The inhibition of T cell proliferation was studied in a human T lymphoblast cell line (Jurkat). The IC50 value for each compound was calculated from the dose response curve. Adding uridine was used to monitor the specificity of the DHODH mechanism. The metabolic stability was studied in human liver microsomes. Table 1 exemplifies the invention, without limiting the scope thereof.

[2] = Metabolic stability in human liver microsomes; format: in vitro ADME; details: for half-life at 0.5 μM / t1/2: human liver microsomes, 0.5 μM compound, 1 mg/mL protein, 1 mM NADPH, pH 7.4, 37° C., "stable" = no degradation could be confirmed
Procedure: The metabolic stability of the test compounds was determined using human liver microsomes. Incubations were performed with a compound concentration of 0.5 μM and a protein concentration of 1 mg/mL in 50 mM sodium phosphate buffer at physiological pH (7.4) and temperature (37° C.). The incubation mixture was preincubated at 37° C. prior to addition of NADPH (1 mM, final concentration). At several time points during 60 minutes, aliquots were removed and added to a 96 well plate placed on dry ice and deep-frozen. Samples were analyzed with LC-MS for concentration of parent compound. From the slope of the log [parent compound] vs. incubation time regression line, the in vitro half-life […] was determined. The intrinsic clearance (CLint) can be calculated using a modified Michaelis-Menten relationship, i.e., CLint=ln 2/t1/2. The CLint can then be converted to CL by using the well-stirred model of hepatic extraction. A value of 1.24 L/h/kg of the hepatic blood flow in man can be used. Results with respect to a number of compounds of the invention are reported as t1/2 (in minutes) in Table 1.
as §1

Row | IC50 [1] [nM] | half-life at 0.5 μM [2] [h] | oxidation half-life / stability towards oxidation by human P450 (in words) ([2]; human in vitro system, cf. Table 1) | t1/2 [2] | SMILES | inhibitory effect on T-cell proliferation (in words) [1]
1 | 420 | 1.18 | – | – | CCC(=O)Nc1ccc(COc2ccc(F)c(Cl)c2)cc1C(=O)O [INV 19, 5-(3-Chloro-4-fluoro-phenoxymethyl)-2-propionylamino-benzoic acid] | –
2 | 90 | 8.15 | – | – | CCC(=O)Nc1ccc(/C=C/c2ccc(C(F)(F)F)cc2C(F)(F)F)cc1C(=O)O [INV 11, 5-[(E)-2-(2,4-Bis-trifluoromethyl-phenyl)-vinyl]-2-propionylamino-benzoic acid] | –
3 | 530 | 1.73 | – | – | CCC(=O)Nc1ccc(COc2ccc(F)c(C(F)(F)F)c2)cc1C(=O)O [INV 17, 5-(4-Fluoro-3-trifluoromethyl-phenoxymethyl)-2-propionylamino-benzoic acid] | –
4 | 240 | 3.55 | – | – | CCC(=O)Nc1ccc(/C=C/c2ccc(F)cc2F)cc1C(=O)O [INV 14, 5-[(E)-2-(2,4-Difluoro-phenyl)-vinyl]-2-propionylamino-benzoic acid] | –
5 | 580 | 3.93 | – | – | CCC(=O)Nc1ccc(COc2ccc(F)cc2C(F)(F)F)cc1C(=O)O [INV 2, 5-(4-Fluoro-2-trifluoromethyl-phenoxymethyl)-2-propionylamino-benzoic acid] | –
6 | 480 | 1.92 | – | – | CCC(=O)Nc1ccc(/C=C/c2ccc(Cl)c(Cl)c2)cc1C(=O)O [INV 27, 5-[(E)-2-(3,4-Dichloro-phenyl)-vinyl]-2-propionylamino-benzoic acid] | –
7 | 600 | – | – | – | CCC(=O)Nc1ccc(/C=C/c2ccc(OC(F)(F)F)c(Cl)c2)cc1C(=O)O [INV 28, 5-[(E)-2-(3-Chloro-4-trifluoromethoxy-phenyl)-vinyl]-2-propionylamino-benzoic acid] | –
8 | 600 | – | – | stable | CCC(=O)Nc1ccc(COc2ccc(C(F)(F)F)cc2C(F)(F)F)cc1C(=O)O [INV 1, 5-(2,4-Bis-trifluoromethyl-phenoxymethyl)-2-propionylamino-benzoic acid] | –
9 | 570 | 1.83 | – | – | CCC(=O)Nc1ccc(OCc2ccc(Cl)cc2C(F)(F)F)cc1C(=O)O [INV 29, 5-(4-Chloro-2-trifluoromethyl-benzyloxy)-2-propionylamino-benzoic acid] | –
10 | 840 | 7.73 | – | – | CCC(=O)Nc1ccc(COc2ccc(Cl)c(C(F)(F)F)c2)cc1C(=O)O [INV 18, 5-(4-Chloro-3-trifluoromethyl-phenoxymethyl)-2-propionylamino-benzoic acid] | –
11 | 240 | 2.8 | – | – | CCC(=O)Nc1ccc(COc2ccc(Cl)cc2Br)cc1C(=O)O [INV 9, 5-(2-Bromo-4-chloro-phenoxymethyl)-2-propionylamino-benzoic acid] | –

Further lines, the compound ahead of its results:

Row | SMILES | IC50 [1] [nM] | half-life at 0.5 μM [2] [h] | oxidation half-life / stability towards oxidation by human P450 (in words) ([2]; human in vitro system, cf. Table 1) | t1/2 [2] | inhibitory effect on T-cell proliferation (in words) [1]
12 | CCC(=O)Nc1ccc(/C=C/c2ccc(F)cc2Cl)cc1C(=O)O [INV 15, 5-[(E)-2-(2-Chloro-4-fluoro-phenyl)-vinyl]-2-propionylamino-benzoic acid] | 35 | 2.28 | – | – | –
13 | CCC(=O)Nc1ccc(COc2ccc(Cl)cc2Cl)cc1C(=O)O [INV 6, 5-(2,4-Dichloro-phenoxymethyl)-2-propionylamino-benzoic acid] | 350 | 3.32 | – | – | –
14 | CCC(=O)Nc1ccc(/C=C/c2ccc(F)cc2C(F)(F)F)cc1C(=O)O [INV 12, 5-[(E)-2-(4-Fluoro-2-trifluoromethyl-phenyl)-vinyl]-2-propionylamino-benzoic acid] | 160 | 2.65 | – | – | –
15 | O=C(O)c1cc(OCc2ccc(Br)cc2C(F)(F)F)ccc1NC(=O)C1CC1 [INV 31, 5-(4-Bromo-2-trifluoromethyl-benzyloxy)-2-(cyclopropanecarbonyl-amino)-benzoic acid] | 420 | 3.87 | – | – | –
16 | COc1ccc(OC)c(COc2ccc(NC(C)=O)c(C(=O)O)c2)c1 [REF 8, 2-acetylamino-5-(2,5-dimethoxy-benzyloxy)-benzoic acid, reference compound] | 6200 | – | short half-life | – | only a weak inhibitory effect
17 | CCC(=O)Nc1ccc(OCc2ccccc2C(F)(F)F)cc1C(=O)OC [REF 10, 2-Propionylamino-5-(2-trifluoromethyl-benzyloxy)-benzoic acid methyl ester, reference compound] | 12300 | – | – | – | –
18 | CCC(=O)Nc1ccc(COc2ccc(F)cc2Br)cc1C(=O)O [INV 8, 5-(2-Bromo-4-fluoro-phenoxymethyl)-2-propionylamino-benzoic acid] | 360 | 5.33 | – | – | –
19 | CCC(=O)Nc1ccc(/C=C/c2ccc(F)c(C(F)(F)F)c2)cc1C(=O)O [INV 23, 5-[(E)-2-(4-Fluoro-3-trifluoromethyl-phenyl)-vinyl]-2-propionylamino-benzoic acid] | 750 | 2.45 | – | – | –
20 | CCC(=O)Nc1ccc(/C=C/c2ccc(Cl)cc2C(F)(F)F)cc1C(=O)O [INV 13, 5-[(E)-2-(4-Chloro-2-trifluoromethyl-phenyl)-vinyl]-2-propionylamino-benzoic acid] | 50 | 1.75 | – | – | –
21 | CCC(=O)Nc1ccc(OCc2ccc(C(F)(F)F)cc2Br)cc1C(=O)O [INV 30, 5-(2-Bromo-4-trifluoromethyl-benzyloxy)-2-propionylamino-benzoic acid] | 590 | 3.18 | – | – | –
22 | CCC(=O)Nc1ccc(/C=C/c2ccc(F)c(Cl)c2)cc1C(=O)O [INV 26, 5-[(E)-2-(3-Chloro-4-fluoro-phenyl)-vinyl]-2-propionylamino-benzoic acid] | 750 | 1.22 | – | – | –
23 | CCC(=O)Nc1ccc(/C=C/c2ccc(Cl)c(C(F)(F)F)c2)cc1C(=O)O [INV 24, 5-[(E)-2-(4-Chloro-3-trifluoromethyl-phenyl)-vinyl]-2-propionylamino-benzoic acid] | 570 | 5.75 | – | – | –
24 | CCC(=O)Nc1ccc(/C=C/c2ccc(C(F)(F)F)c(F)c2)cc1C(=O)O [INV 25, 5-[(E)-2-(3-Fluoro-4-trifluoromethyl-phenyl)-vinyl]-2-propionylamino-benzoic acid] | 740 | – | – | stable | –
25 | CCC(=O)Nc1ccc(/C=C/c2ccc(Cl)cc2Cl)cc1C(=O)O [INV 16, 5-[(E)-2-(2,4-Dichloro-phenyl)-vinyl]-2-propionylamino-benzoic acid] | 20 | 1.83 | – | – | –
26 | COc1ccc(OC)c(CCc2ccc(NC(C)=O)c(C(=O)O)c2)c1 [REF 9, 2-acetylamino-5-[2-(2,5-dimethoxy-phenyl)-ethyl]-benzoic acid, reference compound] | 12000 | – | – | – | very weak inhibitory effect
27 | CCC(=O)Nc1ccc(COc2ccc(Br)cc2C(F)(F)F)cc1C(=O)O [INV 3, 5-(4-Bromo-2-trifluoromethyl-phenoxymethyl)-2-propionylamino-benzoic acid] | 470 | 3.9 | – | – | –
28 | CCC(=O)Nc1ccc(COc2ccc(Br)c(Cl)c2)cc1C(=O)O [INV 20, 5-(4-Bromo-3-chloro-phenoxymethyl)-2-propionylamino-benzoic acid] | 730 | 1.2 | – | – | –
29 | CCC(=O)Nc1ccc(COc2ccc(OC(F)(F)F)c(Cl)c2)cc1C(=O)O [INV 21, 5-(3-Chloro-4-trifluoromethoxy-phenoxymethyl)-2-propionylamino-benzoic acid] | 890 | 2.8 | – | – | –
30 | CCC(=O)Nc1ccc(COc2ccc(C(F)(F)F)cc2Cl)cc1C(=O)O [INV 4, 5-(2-Chloro-4-trifluoromethyl-phenoxymethyl)-2-propionylamino-benzoic acid] | 420 | – | – | stable | –
31 | CCC(=O)Nc1ccc(COc2ccc(C(F)(F)F)cc2Br)cc1C(=O)O [INV 7, 5-(2-Bromo-4-trifluoromethyl-phenoxymethyl)-2-propionylamino-benzoic acid] | 490 | 6.8 | – | – | –
32 | CCC(=O)Nc1ccc(COc2ccc(F)cc2Cl)cc1C(=O)O [INV 5, 5-(2-Chloro-4-fluoro-phenoxymethyl)-2-propionylamino-benzoic acid] | 190 | 5.38 | – | – | –
33 | CCC(=O)Nc1ccc(COc2ccc(OC(F)(F)F)cc2Cl)cc1C(=O)O [INV 10, 5-(2-Chloro-4-trifluoromethoxy-phenoxymethyl)-2-propionylamino-benzoic acid] | 240 | – | – | stable | –
